Data taken from patent US20100063092A1, “3-CYANO-4-(4-PHENYL-PIPERIDIN-1-YL)-PYRIDIN-2-ONE DERIVATIVES” (Ortho-Mcneil-Janssen Pharmaceuticals, Inc., priority 2007, published 2010).
Like-named read-outs stand apart in the source and are kept apart here.

Key:
human mGluR2 = target: T1, human mGluR2 (Homo sapiens, UniProt Q14416); test: [35S]GTPγS binding assay (PAM assay); format: biochemical
T1 construct: expressed in transfected cells; host or cells: CHO cells (membranes)
Description: The compounds provided in the present invention are positive allosteric modulators of mGluR2. These compounds appear to potentiate glutamate responses by binding to an allosteric site other than the glutamate binding site. The response of mGluR2 to a concentration of glutamate is increased when compounds of formula (I) are present. Compounds of formula (I) are expected to have their effect substantially at mGluR2 by virtue of their ability to enhance the function of the receptor. The behaviour of positive allosteric modulators tested at mGluR2 using the [^35S]GTPγS binding assay method described below and which is suitable for the identification of such compounds, and more particularly the compounds according to formula (I), are shown in Table 3.
The [^35S]GTPγS binding assay is a functional membrane-based assay used to study G-protein coupled receptor (GPCR) function whereby incorporation of a non-hydrolysable form of GTP, [^35S]GTPγS (guanosine 5′-triphosphate, labelled with […] ^35S), is measured. The G-protein […] catalyzes the exchange of guanosine 5′-diphosphate (GDP) by guanosine triphosphate (GTP) and on activation of the GPCR by an agonist, [^35S]GTPγS, becomes incorporated and cannot be cleaved to continue the exchange cycle (Harper (1998) Current Protocols in Pharmacology 2.6.1-10, John Wiley & Sons, Inc.). […] Here we describe the use of the [^35S]GTPγS binding assay using membranes from cells transfected with the human mGluR2 receptor and adapted from Schaffhauser et al ((2003) Molecular Pharmacology 4:798-810) for the detection of the positive allosteric modulation (PAM) properties of the compounds of this invention.
CHO-cells were cultured to pre-confluence and stimulated with 5 mM butyrate for 24 hours, prior to washing in PBS, and then collection by scraping in homogenisation buffer (50 mM Tris-HCl buffer, pH 7.4, 4° C.). Cell lysates were homogenized briefly (15s) using an ultra-turrax homogenizer. The homogenate was centrifuged at 23 500×g for 10 minutes and the supernatant discarded. The pellet was resuspended in 5 mM Tris-HCl, pH 7.4 and centrifuged again (30 000×g, 20 min, 4° C.). The final pellet was resuspended in 50 mM HEPES, pH 7.4 and stored at −80° C. in appropriate aliquots before use. Protein concentration was determined by the Bradford method (Bio-Rad, USA) with bovine serum albumin as standard.
Measurement of mGluR2 positive allosteric modulatory activity of test compounds in membranes containing human mGluR2 was performed using frozen membranes that were thawed and briefly homogenised prior to pre-incubation in 96-well microplates (15 μg/assay well, 30 minutes, 30° C.) in assay buffer (50 mM HEPES pH 7.4, 100 mM NaCl, 3 mM MgCl2, 50 μM GDP, 10 μg/ml saponin,) with increasing concentrations of positive allosteric modulator (from 0.3 nM to 50 μM) and either a minimal pre-determined concentration of glutamate (PAM assay), or no added glutamate. For the PAM assay, membranes were pre-incubated with glutamate at EC25 concentration, i.e. a concentration that gives 25% of the maximal response glutamate, and is in accordance to published data (Pin et al. (1999) Eur. J. Pharmacol. 375:277-294). After addition of [^35S]GTPγS (0.1 nM, f.c.) to achieve a total reaction volume of 200 μl, microplates were shaken briefly and further incubated to allow [^35S]GTPγS incorporation on activation (30 minutes, 30° C.). The reaction was stopped by rapid vacuum filtration over glass-fibre filter plates (Unifilter 96-well GF/B filter plates, Perkin-Elmer, Downers Grove, USA) microplate using a 96-well plate cell harvester (Filtermate, Perkin-Elmer, USA), and then by washing three times with 300 μl of ice-cold wash buffer (Na2PO4.2H20 10 mM, NaH2PO4.H20 10 mM, pH=7.4). Filters were then air-dried, and 40 μl of liquid scintillation cocktail (Microscint-O) was added to each well, and membrane-bound [^35S]GTPγS was measured in a 96-well scintillation plate reader (Top-Count, Perkin-Elmer, USA). […]

[1] = compounds of formula (I'), protocol of section D ([35S]GTPγS, human mGluR2, glutamate EC25), read-out: pEC50 (see section D for protocol) (converted)
[2] = membranes from CHO cells transfected with human mGluR2, in presence of glutamate at predetermined EC25 concentration, averages of duplicate values of 11-concentration response curves, read-out: GTPgS - hR2 PAM pEC50 (converted)

T1 sequence (Q14416 19-872): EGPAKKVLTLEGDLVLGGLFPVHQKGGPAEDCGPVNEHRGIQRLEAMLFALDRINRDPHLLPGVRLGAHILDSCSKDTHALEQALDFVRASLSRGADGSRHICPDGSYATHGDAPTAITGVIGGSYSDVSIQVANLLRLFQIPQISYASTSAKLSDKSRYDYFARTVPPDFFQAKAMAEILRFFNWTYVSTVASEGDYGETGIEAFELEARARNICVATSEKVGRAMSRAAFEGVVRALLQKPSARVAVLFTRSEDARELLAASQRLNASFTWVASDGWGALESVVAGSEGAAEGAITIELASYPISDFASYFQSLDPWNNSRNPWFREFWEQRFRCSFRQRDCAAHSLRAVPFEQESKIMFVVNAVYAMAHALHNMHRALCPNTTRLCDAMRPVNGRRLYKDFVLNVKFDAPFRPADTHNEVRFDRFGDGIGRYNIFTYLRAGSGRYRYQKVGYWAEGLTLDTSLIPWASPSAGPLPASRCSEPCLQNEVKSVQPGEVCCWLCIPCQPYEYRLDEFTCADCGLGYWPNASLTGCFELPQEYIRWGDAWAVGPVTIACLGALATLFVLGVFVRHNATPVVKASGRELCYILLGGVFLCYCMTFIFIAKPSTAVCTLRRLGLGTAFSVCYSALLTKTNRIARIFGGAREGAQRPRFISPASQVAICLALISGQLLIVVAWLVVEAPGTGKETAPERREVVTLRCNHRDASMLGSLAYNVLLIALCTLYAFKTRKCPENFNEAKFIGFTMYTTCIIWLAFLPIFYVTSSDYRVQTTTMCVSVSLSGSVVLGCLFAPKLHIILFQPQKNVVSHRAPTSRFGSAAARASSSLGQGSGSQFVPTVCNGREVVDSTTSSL

Compound | EC50 (human mGluR2; [1]) | EC50 (human mGluR2; [2]) | melting point
CCCCn1ccc(N2CCC(O)(c3cccc(Cl)c3)CC2)c(C#N)c1=O | 200 nM |  | 
CCCCn1ccc(N2CCC(O)(c3ccc(Cl)cc3)CC2)c(C#N)c1=O | 100 nM |  | 
CCCCn1ccc(N2CCC(O)(c3ccc(F)cc3)CC2)c(C#N)c1=O | 398 nM |  | 
N#Cc1c(N2CCC(O)(c3ccc(F)cc3)CC2)ccn(CC2CC2)c1=O | 501 nM |  | 
N#Cc1c(N2CCC(O)(c3ccccc3)CC2)ccn(CC2CC2)c1=O | 1000 nM |  | 
N#Cc1c(N2CCC(F)(c3ccccc3)CC2)ccn(CC2CC2)c1=O [Compound 1, 1′-Cyclopropylmethyl-4-fluoro-2′-oxo-4-phenyl-3,4,5,6,1′,2′-hexahydro-2H-[1,4′]bipyridinyl-3′-carbonitrile] |  | 263 nM | 189.2 °C
CCCCn1ccc(N2CCC(F)(c3ccccc3)CC2)c(C#N)c1=O [Compound 2, 1′-Butyl-4-fluoro-2′-oxo-4-phenyl-3,4,5,6,1′,2′-hexahydro-2H-[1,4′]bipyridinyl-3′-carbonitrile] |  | 174 nM | 
CCCCn1ccc(N2CCC(CO)(c3ccccc3)CC2)c(C#N)c1=O [Compound 4, 1′-Butyl-4-hydroxymethyl-2′-oxo-4-phenyl-3,4,5,6,1′,2′-hexahydro-2H-[1,4′]bipyridinyl-3′-carbonitrile] |  | 2040 nM | 103.2 °C
N#Cc1c(N2CCC(CF)(c3ccccc3)CC2)ccn(CC2CC2)c1=O [Compound 5, 1′-Cyclopropylmethyl-4-fluoromethyl-2′-oxo-4-phenyl-3,4,5,6,1′,2′-hexahydro-2H-[1,4′]bipyridinyl-3′-carbonitrile] |  | 1200 nM | 
CCCCn1ccc(N2CCC(CF)(c3ccccc3)CC2)c(C#N)c1=O [Compound 6, 1′-Butyl-4-fluoromethyl-2′-oxo-4-phenyl-3,4,5,6,1′,2′-hexahydro-2H-[1,4′]bipyridinyl-3′-carbonitrile] |  | 447 nM | 
CCCCn1ccc(N2CCC(OCCF)(c3ccccc3)CC2)c(C#N)c1=O [Compound 7, 1′-Butyl-4-fluoroethyloxy-2′-oxo-4-phenyl-3,4,5,6,1′,2′-hexahydro-2H-[1,4′]bipyridinyl-3′-carbonitrile] |  | 186 nM | 
N#Cc1c(N2CCC(c3ccccc3)CC2)ccn(CC2CC2)c1=O [Compound 8, 3-cyano-1-cyclopropylmethyl-4-(4-phenyl-piperidin-1-yl)-pyridine-2(1H)-one] |  | 316 nM | 128 °C
